Test results published in paper PMC11414412, “Design and synthesis new indole-based aromatase/iNOS inhibitors with apoptotic antiproliferative activity” (Frontiers in Chemistry, 2024).

Experiments:
[1] = system: A-549 cells; test: Antiproliferative assay, A-549; format: cell-based; details: Homo sapiens, A549; A-549 lung cancer cell line; read-out: Antiproliferative activity IC50 ± SEM, A-549
Experimental: 4.2.2. Assay for antiproliferative effect
To explore the antiproliferative potential of compounds propidium iodide fluorescence assay was performed using different cell lines such as Panc-1 (pancreas cancer cell line), MCF-7 (breast cancer cell line), HT-29 (colon cancer cell line) and A-549 (epithelial cancer cell line), respectively. To calculate the total nuclear DNA, a fluorescent dye (propidium iodide, PI) is used which can attach to the DNA, thus offering a quick and precise technique. PI cannot pass through the cell membrane and its signal intensity can be considered as directly proportional to quantity of cellular DNA. Cells whose cell membranes are damaged or have changed permeability are counted as dead ones. The assay was performed by seeding the cells of different cell lines at a density of 3000-7500 cells/well (in200μl medium) in culture plates followed by incubation for 24h at 37 °C in humidified 5%CO2/95% air atmospheric conditions. The medium was removed; the compounds were added to the plates at 10 μM concentrations (in 0.1% DMSO) in triplicates, followed by incubation for 48h. DMSO (0.1%) was used as control. After incubation, medium was removed followed by the addition of PI (25 μl, 50μg/mL in water/medium) to each well of the plates. At - 80 °C, the plates were allowed to freeze for 24 h, followed by thawing at 25 °C. A fluorometer (Polar-Star BMG Tech) was used to record the readings at excitation and emission wavelengths of 530 and 620 nm for each well. The percentage cytotoxicity of compounds was calculated using […]
Where ATC= Absorbance of treated cells and AC= Absorbance of control. Erlotinib was used as positive control in the assay.

[2] = Cell viability assay (MTT) on normal mammary epithelial cells; format: cell-based, human; details: human, MCF-10A normal mammary gland epithelial cells, MCF-10A normal cells, 4 days incubation
Experimental: This test investigates the effects of the new compounds 3–16 on normal cell lines to determine their safety. The normal human mammary gland epithelial (MCF-10 A) cell line was used to test the viability of the tested compounds. After 4 days of incubation on MCF-10 A cells within 50 µM of each investigated compound, cell viability was determined using the MTT assay ([Gomaa et al., 2020]; [Marzouk et al., 2020]).
The normal human mammary gland epithelial (MCF-10A) cell line was used to test the viability of the tested compounds. After 4 days of incubation on MCF-10A cells within 50 µM of each investigated compound, cell viability was determined using the MTT assay ([Gomaa et al., 2020]; [Marzouk et al., 2020]). Refer to Supplementary Appendix SA1 (supp. File) for more details.
4.2. Biological evaluation
4.2.1 Cell Viability assay (MTT assay)
MTT assay was performed to investigate the effect of the synthesized compounds on mammary epithelial cells (MCF-10A). The cells were propagated in medium consisting of Ham's F-12 medium/ Dulbecco's modified Eagle's medium (DMEM) (1:1) supplemented with 10% foetal calf serum, 2 mM glutamine, insulin (10 μg/mL), hydrocortisone (500 ng/mL) and epidermal growth factor (20 ng/mL). Trypsin ethylenediamine tetra acetic acid (EDTA) was used to passage the cells after every 2-3 days. 96-well flat-bottomed cell culture plates were used to seed the cells at a density of 10^4 cells mL-1. The medium was aspirated from all the wells of culture plates after 24 h followed by the addition of synthesized compounds (in 200 μL medium to yield a final concentration of 0.1% (v/v) dimethyl sulfoxide) into individual wells of the plates. Four wells were designated to a single compound. The plates were allowed to incubate at 37°C for 96 h. Afterwards, the medium was aspirated and 3-[4,5-dimethylthiazol-2-yl]-2,5-diphenyltetrazolium bromide (MTT) (0.4 mg/mL) in medium was added to each well and subsequently incubated for 3 h. The medium was aspirated and 150 μL dimethyl sulfoxide (DMSO) was added to each well. The plates were vortexed followed by the measurement of absorbance at 540 nm on a microplate reader. The results were presented as inhibition (%) of proliferation in contrast to controls comprising 0.1%

[3] = system: Caspase-8; test: Caspase-8 activation assay; format: cell-based, human; details: A-594 cells; for Caspase-8 Fold change: at IC50 concentration, vs untreated control; for Caspase-8 Conc: compound at its IC50 concentration
Experimental: When cells get specific signal instructions, they undergo apoptosis, which results in several significant changes. Caspases, considered the main workers in apoptosis, are activated early in the process, cleaving critical cellular components such as nuclear proteins like DNA repair enzymes or structural proteins found in the cytoskeleton that are required for optimal cellular function.
4.2.6. Caspase-8 activation assay […]
caspase8, and lysed with Cell Extraction Buffer. This lysate was diluted in Standard Diluent Buffer over the range of the assay and measured for human active caspase-8 content. (Cells are Plated in a density of 1.2 – 1.8 × 10,000 cells/well in a volume of 100µl complete growth medium + 100 ul of the tested compound per well in a 96-well plate for 24 hours before the enzyme assay for Tubulin.). The absorbance of each microwell was read on a spectro-photometer at 450 nm. A standard curve is prepared from 7human Caspase-8 standard dilutions and human Caspase-8 concentration determined. […]

Row | Compound | IC50 [1] [µM] | viability at 4 days, 50 µM [2] [%] | Caspase-8 Fold change [3] | Caspase-8 Conc [3] [ng/mL]
1 | CCc1c2cc(Cl)ccc2n2c(C)c(C(=O)OCc3ccccc3)[nH]c(=O)c12 [Compound 5, benzyl 8-chloro-10-ethyl-4-methyl-1-oxo-1,2-dihydropyrazino [1,2-a]indole-3-carboxylate] | 0.031 ± 0.003 | 90 | – | –
2 | CCc1c2cc(Cl)ccc2n2c(C)c(C(=O)NCc3ccccc3)[nH]c(=O)c12 [Compound 7, N-benzyl-8-chloro-10-ethyl-4-methyl-1-oxo-1,2-dihydropyrazino [1,2-a]indole-3-carboxamide] | 0.028 ± 0.002 | 88 | – | –
3 | CCc1c2cc(Cl)ccc2n2cc(Cc3ccccc3)n(C)c(=O)c12 [Compound 12, 3-Benzyl-8-chloro-10-ethyl-2-methylpyrazino[1,2-a]indol-1(2H)-one] | 0.023 ± 0.002 | 89 | 29 | 2.60 ± 0.20
4 | CCc1c2cc(Cl)ccc2n2cc(-c3ccccc3)[nH]c(=O)c12 [Compound 16, 8-Chloro-10-ethyl-3-phenylpyrazino [1,2-a]indol-1(2H)-one] | 0.025 ± 0.002 | 91 | 25 | 2.25 ± 0.18
